Values after ≈ are worked out from the molar mass of the structure shown. Bounds are passed on as bounds.

The subject of one assay is Escherichia coli. In words: In vitro antibacterial activity of compound towards Escherichia coli NIHJ JC-2. Type of assay: functional.
Another assay has as its system Staphylococcus aureus. Put plainly: In vitro antibacterial activity towards Staphylococcus aureus 209 JC-1. Type of assay: functional.
Another assay concerns P388. Put plainly: In vitro cytotoxicity was measured towards murine lymphocytic leukemia P388 cells. Type of assay: functional, cell-based. The following applies: Mus musculus.
Assay [1] deals with Mus musculus. Put plainly: In vivo antitumor activity against murine P388 leukemia measured as median survival of treated mice to that of control (T/C) at a dose of 50 mg/kg. Format: functional.
Assay [2] concerns Mus musculus. Put plainly: In vivo antitumor activity against murine P388 leukemia measured as median survival of treated mice to that of control (T/C) at a dose of […]. Format: functional.
The next assay has as its system KB. In words: Cytotoxic activity against human KB nasopha tumor cell line. Type of assay: functional, cell-based.
The test system of the next assay is A-427. Put plainly: cells. Format: functional, cell-based. The following applies: Homo sapiens.
Another assay concerns AZ-521 cell line. In words: cells. Type of assay: functional, cell-based. The following applies: Homo sapiens.
The next assay deals with WiDr. In words: Cytotoxic activity against human WiDr colon tumor cell line. Type of assay: functional, cell-based.
Another assay relates to MKN-45. Put plainly: Cytotoxic activity against human MKN45 stomach tumor cell line. Type of assay: functional, cell-based.
In the next assay the test system is HMV-2 cell line. In words: Cytotoxic activity against human HMV-2 melanoma tumor cell line. Format: functional, cell-based.
A further assay deals with C-33-A. Put plainly: Cytotoxic activity against human C-33A cervix tumor cell line. Format: functional, cell-based.

Description for A-427: Cytotoxic activity against human A-427 lung tumor cell line
Description for AZ-521 cell line: Cytotoxic activity against human AZ-521 stomach tumor cell line

The MIC is the lowest concentration that inhibits growth of the organism. A higher MIC goes with weaker potency. The IC50 is the point on the concentration scale where inhibition reaches its midpoint. Read a low IC50 as greater potency in that assay. Regarding `NC1CCN(c2nc3c(cc2F)c(=O)c(O)cn3-c2nccs2)C1` (stereo not given), the minimal inhibitory concentration (MIC) came out at 0.78 µg/mL (≈ 2.25 µM) with Escherichia coli and 50 µg/mL (≈ 144 µM) with Staphylococcus aureus. The compound further showed an IC50 with P388 of 0.168 µg/mL (≈ 0.484 µM).
Take `CCOC(=O)c1cn(-c2nccs2)c2nc(N3CCC(N)C3)c(F)cc2c1=O` (stereo not given): the figures for the MIC in the assay on Escherichia coli and with Staphylococcus aureus were 12.5 µg/mL (≈ 31 µM) and 50 µg/mL (≈ 124 µM), respectively. In the assay with P388, this compound had an IC50 of 0.136 µg/mL (≈ 0.337 µM).
Regarding `NC(=O)c1cn(-c2nccs2)c2nc(N3CCC(N)C3)c(F)cc2c1=O` (stereo not given), the minimal inhibitory concentration (MIC) against Escherichia coli and against Staphylococcus aureus was greater than 100 µg/mL throughout. Also, in the assay with P388, 0.269 µg/mL (≈ 0.718 µM) corresponded to half-maximal inhibition (IC50).
A word on the T/C: it is the ratio of treated to control. Turning to `NC1CCN(c2nc3c(cc2F)c(=O)c(C(=O)O)cn3-c2nccs2)C1` (stereo not given), the MIC against Escherichia coli is 0.025 µg/mL (≈ 0.0666 µM); with Staphylococcus aureus, 0.39 µg/mL (≈ 1.04 µM). In the assay with P388, this compound had an IC50 of 0.0211 µg/mL (≈ 0.0562 µM). Moreover, the values for the T/C in the assay with Mus musculus [1], in the assay on Mus musculus [2] and in the assay on Mus musculus [2] (dose […]) were greater than 375%, 150% and 213%, respectively.
Regarding `CN[C@H]1CN(c2nc3c(cc2F)c(=O)c(C=O)cn3-c2nccs2)C[C@@H]1OC`, the MIC against Escherichia coli was determined as 100 µg/mL (≈ 248 µM); against Staphylococcus aureus, 12.5 µg/mL (≈ 31 µM). The IC50 in the assay with KB amounted to 0.179 µg/mL (≈ 0.444 µM); in the assay with A-427, 0.0749 µg/mL (≈ 0.186 µM); in the assay on P388 it was 0.0309 µg/mL (≈ 0.0766 µM); in the assay on AZ-521 cell line, 0.0307 µg/mL (≈ 0.0761 µM); in the assay with WiDr it was 0.264 µg/mL (≈ 0.654 µM); with MKN-45, 0.144 µg/mL (≈ 0.357 µM). Further, the IC50 is 0.214 µg/mL (≈ 0.53 µM) with HMV-2 cell line and 0.161 µg/mL (≈ 0.399 µM) with C-33-A. In addition, the T/C in the assay on Mus musculus [1] is reported as 325%; in the assay with Mus musculus [2] it was 188%; with Mus musculus [2] (dose […]), 250%.
In the case of `NC1CCN(c2nc3c(cc2F)c(=O)c(Cc2ccccc2)cn3-c2nccs2)C1` (stereo not given), the minimal inhibitory concentration (MIC) against Escherichia coli was 100 µg/mL (≈ 237 µM); with Staphylococcus aureus, 50 µg/mL (≈ 119 µM). This compound registered an IC50 in the assay on P388 of 0.0178 µg/mL (≈ 0.0422 µM).
For the compound `COc1cc([C@@H]2c3cc4c(cc3[C@@H](O[C@@H]3O[C@@H]5CO[C@@H](C)O[C@H]5[C@H](O)[C@H]3O)[C@H]3COC(=O)[C@H]23)OCO4)cc(OC)c1O` [ETOPOSIDE], the IC50 is 0.201 µg/mL (≈ 0.342 µM) in the assay on KB; 0.08 µg/mL (≈ 0.136 µM) with AZ-521 cell line; 1.63 µg/mL (≈ 2.77 µM) in the assay with WiDr; 0.49 µg/mL (≈ 0.833 µM) in the assay on MKN-45; 0.298 µg/mL (≈ 0.506 µM) with HMV-2 cell line; 0.084 µg/mL (≈ 0.143 µM) with C-33-A. Further, the T/C is given as greater than 375% in the assay on Mus musculus [1]; 175% in the assay with Mus musculus [2]; 250% in the assay with Mus musculus [2] (dose […] mg/kg, […]).
